Reference: ChEMBL document CHEMBL1133798, “Potent and selective bicyclic lactam inhibitors of thrombin. Part 4: transition state inhibitors” (Bioorg Med Chem Lett, 2001)

Assays:
[1] = target: Serine protease 1 (Homo sapiens, UniProt P07477); assay: In vitro activity against human alpha trypsin was determined
[2] = target: Prothrombin (Homo sapiens, UniProt P00734); assay: In vitro activity against human alpha thrombin was determined
[3] = species: Rattus norvegicus; assay: Activated partial thromboplastin time was measured in rat arterial thrombosis model; format: functional
[4] = species: Rattus norvegicus; assay: Mean occulation time was measured in rat arterial thrombosis model; format: functional
[5] = species: Rattus norvegicus; assay: Thrombin time was measured in rat arterial thrombosis model; format: functional
[6] = Oral bioavailability in rat (dose 30 mg/kg); format: ADME, organism-based; conditions: in vivo

Chain of Serine protease 1 (P07477 whole entry): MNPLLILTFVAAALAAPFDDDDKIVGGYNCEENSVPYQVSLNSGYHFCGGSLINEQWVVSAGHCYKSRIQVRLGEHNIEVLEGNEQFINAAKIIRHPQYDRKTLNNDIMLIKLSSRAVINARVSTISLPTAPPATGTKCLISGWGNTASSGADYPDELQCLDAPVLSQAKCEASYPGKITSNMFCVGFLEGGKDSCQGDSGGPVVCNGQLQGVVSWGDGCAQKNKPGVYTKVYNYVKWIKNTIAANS

| Compound | Ki [1] | Ki [2] | APTT [3] | MOT [4] | TT [5] | bioavailability [6] | IC50 [1] | IC50 [2] |
| --- | --- | --- | --- | --- | --- | --- | --- | --- |
| CNC(=O)C(=O)C(NC(=O)[C@@H]1CC[C@H]2CN(S(=O)(=O)Cc3ccccc3)CC(=O)N21)[C@H]1CC[C@H](N)CC1 (some centres undefined) | 2400 nM | 0.33 nM | 47 s | 20 min | 999 s |  |  |  |
| N[C@H]1CC[C@H](C(NC(=O)[C@@H]2CC[C@H]3CN(S(=O)(=O)Cc4ccccc4)CC(=O)N32)C(=O)C(=O)O)CC1 (some centres undefined) | 2200 nM | 0.09 nM | 54 s | >60 min | 938 s | 0.4% |  |  |
| N[C@H]1CC[C@H](C(NC(=O)[C@@H]2CC[C@H]3CN(S(=O)(=O)Cc4ccccc4)CC(=O)N32)C(=O)c2nc3ccccc3s2)CC1 (some centres undefined) | 1400 nM | 0.72 nM | 25 s | >60 min | 339 s | 0.6% |  |  |
| Cc1nc(C(=O)C(NC(=O)[C@@H]2CC[C@H]3CN(S(=O)(=O)Cc4ccccc4)CC(=O)N32)[C@H]2CC[C@H](N)CC2)sc1C(=O)O (some centres undefined) | 65000 nM | 80 nM | 20 s | 16 min | 99 s | 0.4% |  |  |
| CCCCOC(=O)C(=O)C(NC(=O)[C@@H]1CC[C@H]2CN(S(=O)(=O)Cc3ccccc3)CC(=O)N21)[C@H]1CC[C@H](N)CC1 (some centres undefined) |  |  | 53 s | 47 min | 883 s | 0.7% | 550 nM | 0.1 nM |
| N[C@H]1CC[C@H](C(NC(=O)[C@@H]2CC[C@H]3CN(S(=O)(=O)Cc4ccccc4)CC(=O)N32)C(=O)c2nccs2)CC1 (some centres undefined) | 8000 nM | 3.2 nM | 66 s | > 60 min | 829 s | 1.8% |  |  |
| COC(=O)C(=O)C(NC(=O)[C@@H]1CC[C@H]2CN(S(=O)(=O)Cc3ccccc3)CC(=O)N21)[C@H]1CC[C@H](N)CC1 (some centres undefined) |  | 0.13 nM | 46 s | >60 min | 999 s | 1.1% |  |  |
| N[C@H]1CC[C@H](C(NC(=O)[C@@H]2CC[C@H]3CN(S(=O)(=O)Cc4ccccc4)CC(=O)N32)C(=O)C(=O)NCC(=O)O)CC1 (some centres undefined) | 29000 nM | 2.14 nM |  |  |  |  |  |  |
| N[C@H]1CC[C@H](C(NC(=O)[C@@H]2CC[C@H]3CN(S(=O)(=O)Cc4ccccc4)CC(=O)N32)C(=O)c2nnnn2CC(=O)O)CC1 (some centres undefined) | > 400000 nM |  |  |  |  |  |  |  |
| Cn1nnnc1C(=O)C(NC(=O)[C@@H]1CC[C@H]2CN(S(=O)(=O)Cc3ccccc3)CC(=O)N21)[C@H]1CC[C@H](N)CC1 (some centres undefined) | 35000 nM | 5 nM | 46 s | 46 min | 322 s |  |  |  |
| CCSC(=O)C(=O)C(NC(=O)[C@@H]1CC[C@H]2CN(S(=O)(=O)Cc3ccccc3)CC(=O)N21)[C@H]1CC[C@H](N)CC1 (some centres undefined) | 150 nM | 0.26 nM | 33 s | 49 min | 999 s | 0.3% |  |  |
